Laboratory results taken from US20250066341A1 (CHIESI FARMACEUTICI S.P.A., priority 2021, published 2025).

Target: T1, human recombinant LPA1 expressed in CHO cells (Homo sapiens, UniProt Q92633)
T1 construct: expressed in transfected cells; host or cells: CHO cells (CHO-hLPA1 cell line)
Experiment: FLIPR calcium mobilization assay, LPA1 antagonism in CHO-hLPA1 cells
Type: cell-based
Conditions: inhibition of LPA EC80 Ca2+ response, 30 min pre-incubation, expressed as range of activity
Description: The effectiveness of compounds of the present invention as LPA1 antagonist can be determined at the human recombinant LPA1 expressed in CHO cells, using a FLIPR assay in 384 well format.
CHO-hLPA1 cell lines are cultured in a humidified incubator at 5% C02 in DMEM/F-12 (1:1) MIXTURE with 2 mM Glutamax, supplemented with 10% of Foetal Bovine Serum, 1 mM Sodium Pyruvate, 11 mM Hepes and 1× Penicillin/Streptomycin. […] Serial dilutions (1:3 or 1:4, 11 points CRC) of compounds are performed in 100% DMSO at 200× the final concentration. […] The final concentration of DMSO in the assay will be 0.5% in each well. Medium is removed by aspiration and cells are then incubated with 30 μl of a loading solution containing 5 μM of the cytoplasmic Ca2+ indicator Cal-520 AM in Assay Buffer containing 2.5 mM probenecid for 30 min at 37° C. incubator (cell loading). The loaded cell plates are transferred into the FLIPR instrument and calcium responses are monitored during the on-line addition protocols. For testing of compounds, after the cell loading, 10 μl/well of 4× antagonists' solution was added onto the cells. After 30 min pre-incubation (at 37° C.), 10 μl/well of 5× concentrated LPA EC80 was added and Ca2+ mobilization responses was followed during the on-line addition protocol. Intracellular peak fluorescence values subtracted by baseline fluorescence are exported and analysed to determine IC50 values, respectively. The calcium response is expressed as percentage of the maximal inhibition of the EC80 agonist response.
The raw data (peak height expressed as relative fluorescence units) are normalized and transformed into “percent of inhibition”. Curve fitting and pIC50 (−LogIC50) estimations are carried out using a four-parameter logistic model using XLfit Software.

T1 sequence (Q92633 whole entry): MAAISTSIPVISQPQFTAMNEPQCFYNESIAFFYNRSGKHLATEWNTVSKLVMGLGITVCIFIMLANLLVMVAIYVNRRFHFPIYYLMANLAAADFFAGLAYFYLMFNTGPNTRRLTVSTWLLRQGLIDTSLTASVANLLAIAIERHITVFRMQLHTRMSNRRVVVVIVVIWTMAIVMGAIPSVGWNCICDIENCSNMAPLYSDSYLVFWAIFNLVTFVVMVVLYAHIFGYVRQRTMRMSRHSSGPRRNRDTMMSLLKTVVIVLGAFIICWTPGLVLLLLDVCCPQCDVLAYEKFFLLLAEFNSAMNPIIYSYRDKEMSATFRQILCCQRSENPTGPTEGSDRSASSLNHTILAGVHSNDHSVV

Compound	IC50
Cc1nc(-c2onc(C)c2Nc2cncc(C3CCCC3)n2)ccc1NC(=O)[C@H]1CCCC[C@@H]1C(=O)O [Compound 11, (1S,2S)-2-((6-(4-((6-cyclopentylpyrazin-2-yl)amino)-3-methylisoxazol-5-yl)-2-methylpyridin-3-yl)carbamoyl)cyclohexane-1-carboxylic acid]	< 50 nM
Cc1nc(-c2onc(C)c2Nc2cncc(CC(C)C)n2)ccc1NC(=O)[C@H]1CCCC[C@@H]1C(=O)O [Compound 12, (1S,2S)-2-((6-(4-((6-isobutylpyrazin-2-yl)amino)-3-methylisoxazol-5-yl)-2-methylpyridin-3-yl)carbamoyl)cyclohexane-1-carboxylic acid]	50 to 250 nM
Cc1nc(-c2onc(C)c2Nc2cncc(C(C)C)n2)ccc1NC(=O)[C@H]1CCCC[C@@H]1C(=O)O [Compound 13, (1S,2S)-2-((6-(4-((6-isopropylpyrazin-2-yl)amino)-3-methylisoxazol-5-yl)-2-methylpyridin-3-yl)carbamoyl)cyclohexane-1-carboxylic acid]	50 to 250 nM
Cc1nc(-c2onc(C)c2Nc2cncc(-c3ccccn3)n2)ccc1NC(=O)[C@H]1CCCC[C@@H]1C(=O)O [Compound 14, (1S,2S)-2-((2-methyl-6-(3-methyl-4-((6-(pyridin-2-yl)pyrazin-2-yl)amino)isoxazol-5-yl)pyridin-3-yl)carbamoyl)cyclohexane-1-carboxylic acid]	50 to 250 nM
Cc1nc(-c2onc(C)c2Nc2cncc(NC3CCCC3)n2)ccc1NC(=O)[C@H]1CCCC[C@@H]1C(=O)O [Compound 15, (1S,2S)-2-((6-(4-((6-(cyclopentylamino)pyrazin-2-yl)amino)-3-methylisoxazol-5-yl)-2-methylpyridin-3-yl)carbamoyl)cyclohexane-1-carboxylic acid]	50 to 250 nM
Cc1nc(-c2cnn(C)c2CNc2nccc(OC(C)C)n2)ccc1NC(=O)[C@H]1CCCC[C@@H]1C(=O)O [Compound 17, (1S,2S)-2-((6-(5-(((4-isopropoxypyrimidin-2-yl)amino)methyl)-1-methyl-1H-pyrazol-4-yl)-2-methylpyridin-3-yl)carbamoyl)cyclohexane-1-carboxylic acid]	50 to 250 nM
Cc1nc(-c2cnn(C)c2CNc2nccc(C3CCCCC3)n2)ccc1NC(=O)[C@H]1CCCC[C@@H]1C(=O)O [Compound 18]	< 50 nM
Cc1nc(-c2cnn(C)c2CNc2nccc(-c3ccccc3)n2)ccc1NC(=O)[C@H]1CCCC[C@@H]1C(=O)O [Compound 19, (1S,2S)-2-((2-methyl-6-(1-methyl-5-(((4-phenylpyrimidin-2-yl)amino)methyl)-1H-pyrazol-4-yl)pyridin-3-yl)carbamoyl)cyclohexane-1-carboxylic acid]	< 50 nM
CC(C)Oc1cncc(Nc2c(-c3ccc(NC(=O)[C@H]4CCCC[C@@H]4C(=O)O)cc3)cnn2C)n1 [Compound 20, (1S,2S)-2-((4-(5-((6-isopropoxypyrazin-2-yl)amino)-1-methyl-1H-pyrazol-4-yl)phenyl)carbamoyl)cyclohexane-1-carboxylic acid]	50 to 250 nM
Cc1nc(-c2cnn(C)c2COC(=O)N(C)CCC(C)C)ccc1NC(=O)[C@H]1CCCC[C@@H]1C(=O)O [Compound 21, (1S,2S)-2-((6-(5-(((isopentyl(methyl)carbamoyl)oxy)methyl)-1-methyl-1H-pyrazol-4-yl)-2-methylpyridin-3-yl)carbamoyl)cyclohexane-1-carboxylic acid]	250 to 600 nM
Cc1nc(-c2onc(C)c2NS(=O)(=O)CCc2ccccc2Cl)ccc1NC(=O)[C@H]1CCCC[C@@H]1C(=O)O [Compound 22, (1S,2S)-2-((6-(4-((2-(2-chlorophenyl)ethyl)sulfonamido)-3-methylisoxazol-5-yl)-2-methylpyridin-3-yl)carbamoyl)cyclohexane-1-carboxylic acid]	< 50 nM
Cc1nc(-c2onc(C)c2NS(=O)(=O)CCc2ccccc2)ccc1NC(=O)[C@H]1CCCC[C@@H]1C(=O)O [Compound 23, (1S,2S)-2-((2-methyl-6-(3-methyl-4-((2-phenylethyl)sulfonamido)isoxazol-5-yl)pyridin-3-yl)carbamoyl)cyclohexane-1-carboxylic acid]	50 to 250 nM
